Assay results published in patent US20110250613A1, “Arrayed Multiple Ubiquitin Binding Domains as Linkage-specific Polyubiquitin Affinity Reagents” (THE JOHNS HOPKINS UNIVERSITY, priority 2009, published 2011).
pKd: −log10 of the molar value. Values joined by “and” are separate entries in the source; they are usually repeats but may differ in a detail not shown here. Equal entries are not always repeated. Blank lines part the entries; values can stand above or below the substance they belong to. Where no end group is shown, it is not given here. The star is where a group is joined. Fluorescein(5-Mal) = O=C1OC2(c3ccc(O)cc3Oc3cc(O)ccc32)c2ccc(N3C(=O)CC(*)C3=O)cc21

Assays:
K63-Ub4 and K48-Ub4 = assay: GST pull-down assay with 125I-labeled K63- or K48-Ub4; format: binding
Experimental: Pull-Down Assays. GST-UBA protein was added to 15 μl of glutathione-agarose and the beads were washed with binding buffer [25 mM phosphate pH 7.4, 150 mM NaCl, 10 mM β-mercaptoethanol, 1 mM EDTA, 0.05% (v/v) Brij35]. ^125I-labeled K63 or K48-Ub4 (1 μM) was then added in 100 μl of binding buffer plus 1 mg ml^−1 BSA, and the beads agitated gently for 20 min. at room temperature. The specific radioactivities of ^125I-labeled K63- and K48-Ub4 were normalized beforehand with unlabeled chains. The beads were then washed quickly 2 or 3 times with binding buffer. The bound chains were eluted with SDS-PAGE sample buffer and resolved by SDSPAGE. The Ub4 bands were excised from the gel and quantified with a gamma-counter. “Bound counts” in FIG. 12d and FIG. 15d is the radioactivity (cpm) for a particular band minus the counts in the corresponding gel slice in the negative-control lane.

K63-Ub2 = target: T1, K63-Ub2 (Homo sapiens, UniProt P0CG47, K63R); assay: Fluorescence anisotropy binding of fluorescent tUIM peptides to K63-Ub2; settings: fluorescence anisotropy
T1 construct: Ub and K48- and K63-linked diUb and tetraUb were made as described; made in house
From the text: Fluorescent Labeling. Rap80 tUIM peptides were fluorescently-labeled on the sulfhydryl group of C121 (see FIG. 1). For longer Rap80 constructs, all cysteines except C121 were mutated to serine for site-specific labeling. Ataxin-3 and Vps27 UIM peptides were labeled on a single cysteine introduced at the C-terminus. Fluorescein-5-maleimide (Pierce) was coupled to cysteines following the manufacturer's instructions. After desalting through Sephadex G-25 resin, fluorescein-labeled tUIM peptides were separated from unlabeled peptides by anion-exchange chromatography (MonoQ column, GE Biosciences) by elution with a NaCl gradient in 50 mM Tris buffer, pH 7.9. The labeled peptides were essentially 100% pure by SDS-PAGE and Coomassie blue staining, and MALDI-TOF mass spectrometry confirmed the addition of a single fluorescein moiety. Fluorescence Anisotropy Binding Assays. Fluorescence anisotropy measurements were made using a Fluoromax 4 fluorometer in L format, thermostatted at 25° C. Excitation and emission monochromators were set at 492 nm and 520 nm, respectively. Slit widths were 3 nm for diUb-binding assays ([…]) or 6 nm for tetraUb-binding assays ([…]). Anisotropies were calculated by the instrument software, and the overall intensity of the fluorescence signal was monitored at each point with the polarizers oriented at the magic angle. All measurements were made in fluorescence buffer (25 mM Na phosphate [pH 7.4], 150 mM NaCl, 5 mM β-mercaptoethanol, 1 mM EDTA, and either 0.005% surfactant P20 (BIACORE) or 0.05% Brij35). Concentrations of the fluorescent proteins were calculated using the fluorescein extinction coefficient at 494 nm, 68000 M^-1 cm^-1. (poly)Ub concentrations were assessed by absorbance at 280 nm using the extinction coefficient 0.16 (mg/ml)^-1 cm^-1 ([…] and Raasi, 2005). Fluorescence anisotropy data were fit with a single-site binding model as described (Wilkinson, 2004). The equilibrium constants for wild-type Vps27 peptide binding to K63 and K48 Ub4 were determined by competition with the fluorescent Vps27 7aa linker peptide as described (Wilkinson, 2004).

K63-Ub4 [1] = target: T2, K63-Ub4 (Homo sapiens, UniProt P0CG47, K63R); assay: SPR of captured GST-UBA proteins with K63-Ub4; format: binding; settings: SPR (Table 4) versus fluorescence anisotropy (Table 5)
T2 construct: Ub and K48- and K63-linked diUb and tetraUb were made as described; made in house
Experimental: Surface Plasmon Resonance. SPR analyses was performed on a Biacore 3000 instrument at 25° C. in HBS-EP buffer (Biacore). Anti-GST antibody (Biacore) was immobilized by amine coupling on a Biacore CM5 chip. GST-UBA proteins were captured on a measurement surface at a density of 150-400 RU; an antibody-coupled surface served as the reference. Ubn chains were applied to the chip with a 5 μl/min flow rate and recorded the response; 50 mM glycine pH 1.8 or 15 mM NaOH was used to remove GST-UBA proteins and renew the surface. The data was fit with a single-site binding model as described in Wilkinson, 2004.

K48-Ub2 = target: T3, K48-Ub2 (Homo sapiens, UniProt P0CG47, K48R); assay: Fluorescence anisotropy binding of fluorescent tUIM peptides to K48-Ub2; settings: single-site fit, 25° C., pH 7.4
T3 construct: Ub and K48- and K63-linked diUb and tetraUb were made as described; made in house
Experimental: Fluorescence Anisotropy Binding Assays. Fluorescence anisotropy measurements were made using a Fluoromax 4 fluorometer in L format, thermostatted at 25° C. Excitation and emission monochromators were set at 492 nm and 520 nm, respectively. Slit widths were 3 nm for diUb-binding assays (1 mM fluorophore) or 6 nm for tetraUb-binding assays (0.1 mM fluorophore). Anisotropies were calculated by the instrument software, and the overall intensity of the fluorescence signal was monitored at each point with the polarizers oriented at the magic angle. All measurements were made in fluorescence buffer (25 mM Na phosphate [pH 7.4], 150 mM NaCl, 5 mM β-mercaptoethanol, 1 mM EDTA, and either 0.005% surfactant P20 (BIACORE) or 0.05% Brij35). Concentrations of the fluorescent proteins were calculated using the fluorescein extinction coefficient at 494 nm, 68000 M^-1 cm^-1. (poly)Ub concentrations were assessed by absorbance at 280 nm using the extinction coefficient 0.16 (mg/ml)^-1 cm^-1 ([…] and Raasi, 2005). Fluorescence anisotropy data were fit with a single-site binding model as described (Wilkinson, 2004).

K63-Ub4 [2] = target: T2, K63-Ub4; assay: Fluorescence anisotropy binding of fluorescent tUIM peptides to K63-Ub4; settings: fluorescence anisotropy, single-site fit, 25° C., pH 7.4
From the text: (§1) Fluorescent Labeling. Rap80 tUIM peptides were fluorescently-labeled on the sulfhydryl group of C121 (see FIG. 1). For longer Rap80 constructs, all cysteines except C121 were mutated to serine for site-specific labeling. Ataxin-3 and Vps27 UIM peptides were labeled on a single cysteine introduced at the C-terminus. Fluorescein-5-maleimide (Pierce) was coupled to cysteines following the manufacturer's instructions. After desalting through Sephadex G-25 resin, fluorescein-labeled tUIM peptides were separated from unlabeled peptides by anion-exchange chromatography (MonoQ column, GE Biosciences) by elution with a NaCl gradient in 50 mM Tris buffer, pH 7.9. […] Fluorescence Anisotropy Binding Assays. Fluorescence anisotropy measurements were made using a Fluoromax 4 fluorometer in L format, thermostatted at 25° C. […] Anisotropies were calculated by the instrument software, and the overall intensity of the fluorescence signal was monitored at each point with the polarizers oriented at the magic angle. All measurements were made in fluorescence buffer (25 mM Na phosphate [pH 7.4], 150 mM NaCl, 5 mM β-mercaptoethanol, 1 mM EDTA, and either 0.005% surfactant P20 (BIACORE) or 0.05% Brij35). Concentrations of the fluorescent proteins were calculated using the fluorescein extinction coefficient at 494 nm, 68000 M^-1 cm^-1. […]

monoUb = target: T4, monoUb (Homo sapiens, UniProt P0CG47); assay: Fluorescence anisotropy binding of fluorescent UIM peptides to monoUb
T4 construct: Ub and K48- and K63-linked diUb and tetraUb were made as described; made in house
From the text: as §1

K63-Ub4 [3] = assay: Fluorescence anisotropy binding of fluorescent free UBA domains to K63-Ub4; settings: free UBA domains
From the text: (§2) Fluorescent Labeling. Ede1 UBA, hHR23A UBA1, Dsk2 UBA and Ddi1 UBA were produced as intein fusions and fluorescently labeled using expressed protein ligation as described in Scheibner et al., 2003. The dipeptide used for Ede1 labeling was Cys-Lys, with NHS-rhodamine (Pierce) coupled to the lysine amino group, and was a kind gift from Philip Cole (Johns Hopkins School of Medicine). MALDI mass spectroscopy confirmed the addition of the fluorescent dipeptide to the Ede1 UBA domain and that there was complete cleavage of the initiating methionine residue. hHR23A UBA1, Dsk2, and Ddi1 UBAs were labeled in a similar way, except that the dipeptide contained a fluorescein moiety instead of rhodamine. The fluorescein-labeled dipeptide was made as described in Scheibner et al., 2003. […]
(§3) Fluorescence Anisotropy Binding Assays. Fluorescence anisotropy measurements were performed as described (Sims and Cohen, 2009) using excitation and emission maxima of 492 nm/520 nm (fluorescein), 556 nm/569 nm (Alexa Fluor 546), or 555 nm/578 nm (rhodamine), in binding buffer at 25° C. The concentrations of the fluorescent proteins were calculated using published extinction coefficients (Invitrogen-Molecular Probes). polyUb concentrations were assessed from absorbance at 280 nm using the Ub extinction coefficient of 0.16 (mg per ml)^−1 cm^'1.49. […]

K48-Ub4 [4] = assay: Fluorescence anisotropy binding of fluorescent free UBA domains to K48-Ub4; settings: free fluorescent UBA domain
From the text: as §2, §3

K48-Ub4 [5] = assay: Fluorescence anisotropy binding of fluorescent tUIM peptides to K48-Ub4
From the text: as §1

[6] = single-site fit, 25° C., pH 7.4

Substance: GST-fmm: functionally monomeric mixture: GST-His homodimers and GST-His/GST-Ede1 heterodimers at about 6:1 (GSATTPKSLAVEELSGMGFTEEEAHNALEKCNWDLEAATNFLLDSA; also: GST-His fusion, mixture of GST-His homodimers and GST-His/GST-Ede1 heterodimers at about 6:1)
Ub4 linkage preference by pull-down (K63-Ub4 and K48-Ub4; 125I-labeled K63-Ub4 versus K48-Ub4): no linkage preference

Substance: GST-UBA Ede1: GST fusion of the yeast Ede1 UBA domain, dimeric; sequence in Table 3 (GSATTPKSLAVEELSGMGFTEEEAHNALEKCNWDLEAATNFLLDSA; also: GST fusion, dimeric)
K63-Ub4 affinity of the GST fusion tighter than the free domain (K63-Ub4 [1]): 9 fold | preference for K63-Ub4 over K48-Ub4 by pull-down (K63-Ub4 and K48-Ub4; 125I-labeled Ub4 1 μM, bound counts, listed as GST-Ede1): 12 fold and > 11 fold

Substance: PSSHHHHHHSSGLVPRGSHMTEEEQEQEAREVNSQEEEEEELLRKAIAESLNSC(Fluorescein(5-Mal))RPS [UIM2]
pKd (monoUb): 3.28 | pKd (K63-Ub2; text of Example 2): 3.33 | pKd (K48-Ub2): 3.70

Substance: Ddi1
difference in Kd for K63- and K48-Ub4 (K63-Ub4 [3]): < 2 fold | pKd (K48-Ub4 [4]): 4.30

Substance: ataxin-3 (WT): human ataxin-3 tandem UIM peptide, 2-residue linker DM
pKd (K63-Ub2; [6]): 4.04 | pKd (K48-Ub2): 4.00 | preference for K48-Ub4 over K63-Ub4 (K48-Ub4 [5]; fluorescence anisotropy Kd values, Table 2): 5 fold | pKd (K48-Ub4 [5]; fluorescence anisotropy, single-site fit, 25° C., pH 7.4): 5.48

Substance: PSSHHHHHHSSGLVPRGSHMTEEEQFALALKMSEQEAREVNSQEEEEEELLNSC(Fluorescein(5-Mal))RPS [UIM1]
pKd (monoUb): 3.29 | pKd (K63-Ub2; text of Example 2): 3.64 | pKd (K48-Ub2): 3.55

Continued, values first:

pKd (K63-Ub2; [6]): 4.33
Substance: PSSHHHHHHSSGLVPRGSHMTEEEQFALALKMSEQEAEEEEELLRKAIAESLNSC(Fluorescein(5-Mal))RPS [Rap80 no linker]

pKd (K63-Ub2; [6]): 3.94 | pKd (K48-Ub2): 3.84 | pKd (K63-Ub4 [2]): 4.70
Substance: PSSHHHHHHSSGLVPRGSHMTEEEQFALALKMSEQEADMEEEEELLRKAIAESLNSC(Fluorescein(5-Mal))RPS [Rap80 ataxin linker]

pKd (K63-Ub2; [6]): 3.96 | pKd (K48-Ub2): 3.74 | pKd (K63-Ub4 [2]): 4.72
Substance: PSSHHHHHHSSGLVPRGSHMTEEEQFALALKMSEQEAAAEEEEELLRKAIAESLNSC(Fluorescein(5-Mal))RPS [Rap80 2A linker]

K63-Ub4 affinity of the GST fusion tighter than the free domain (K63-Ub4 [1]): > 6 fold
Substance: GST-UBA hHR23A UBA1: GST fusion of human hHR23A UBA1 domain; sequence in Table 3
